# Experimental data from patent US11572590B2, “Methods for evaluating tumor cell spheroids using 3D microfluidic cell culture device” (Dana-Farber Cancer Institute, Inc., priority 2017, dated 2023).
# Where two headings read alike, the source gives them in different places.
# Assays:
# [1] = biological target: T1, off-target kinases (Homo sapiens, UniProt Q16832); assay: SelectScreen Kinase Profiling, single point inhibition and IC50 for off-target kinases; assay type: biochemical; settings: DDR2, LanthaScreen Binding
# T1 sequence (Q16832 22-855): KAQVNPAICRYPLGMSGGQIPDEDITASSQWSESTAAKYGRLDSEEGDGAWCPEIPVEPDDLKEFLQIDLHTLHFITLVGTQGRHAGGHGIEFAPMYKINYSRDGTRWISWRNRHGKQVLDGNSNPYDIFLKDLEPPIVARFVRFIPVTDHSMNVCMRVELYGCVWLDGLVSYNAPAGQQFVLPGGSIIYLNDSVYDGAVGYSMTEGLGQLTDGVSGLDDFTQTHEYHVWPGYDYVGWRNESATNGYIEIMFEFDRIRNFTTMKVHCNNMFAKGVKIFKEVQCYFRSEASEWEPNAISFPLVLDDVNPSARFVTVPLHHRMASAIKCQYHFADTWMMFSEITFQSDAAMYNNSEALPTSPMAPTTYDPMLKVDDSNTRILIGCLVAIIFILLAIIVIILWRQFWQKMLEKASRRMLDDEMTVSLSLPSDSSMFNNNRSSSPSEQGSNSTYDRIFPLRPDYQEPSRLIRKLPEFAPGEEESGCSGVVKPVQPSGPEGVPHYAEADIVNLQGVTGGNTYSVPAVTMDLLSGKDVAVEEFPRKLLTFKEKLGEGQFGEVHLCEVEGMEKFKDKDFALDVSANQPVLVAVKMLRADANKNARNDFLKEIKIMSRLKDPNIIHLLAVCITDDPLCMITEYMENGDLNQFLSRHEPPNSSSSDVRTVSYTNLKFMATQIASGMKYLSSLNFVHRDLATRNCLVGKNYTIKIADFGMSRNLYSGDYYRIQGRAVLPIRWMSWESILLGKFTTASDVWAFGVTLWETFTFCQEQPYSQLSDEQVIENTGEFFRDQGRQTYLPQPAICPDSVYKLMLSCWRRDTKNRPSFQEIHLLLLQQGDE
# [2] = biological target: T2, off-target kinases (Homo sapiens, UniProt P29323); assay: as above; assay type: biochemical; settings: EPHB2, ZLYTE, ATP Km app
# T2 sequence (P29323 19-1055): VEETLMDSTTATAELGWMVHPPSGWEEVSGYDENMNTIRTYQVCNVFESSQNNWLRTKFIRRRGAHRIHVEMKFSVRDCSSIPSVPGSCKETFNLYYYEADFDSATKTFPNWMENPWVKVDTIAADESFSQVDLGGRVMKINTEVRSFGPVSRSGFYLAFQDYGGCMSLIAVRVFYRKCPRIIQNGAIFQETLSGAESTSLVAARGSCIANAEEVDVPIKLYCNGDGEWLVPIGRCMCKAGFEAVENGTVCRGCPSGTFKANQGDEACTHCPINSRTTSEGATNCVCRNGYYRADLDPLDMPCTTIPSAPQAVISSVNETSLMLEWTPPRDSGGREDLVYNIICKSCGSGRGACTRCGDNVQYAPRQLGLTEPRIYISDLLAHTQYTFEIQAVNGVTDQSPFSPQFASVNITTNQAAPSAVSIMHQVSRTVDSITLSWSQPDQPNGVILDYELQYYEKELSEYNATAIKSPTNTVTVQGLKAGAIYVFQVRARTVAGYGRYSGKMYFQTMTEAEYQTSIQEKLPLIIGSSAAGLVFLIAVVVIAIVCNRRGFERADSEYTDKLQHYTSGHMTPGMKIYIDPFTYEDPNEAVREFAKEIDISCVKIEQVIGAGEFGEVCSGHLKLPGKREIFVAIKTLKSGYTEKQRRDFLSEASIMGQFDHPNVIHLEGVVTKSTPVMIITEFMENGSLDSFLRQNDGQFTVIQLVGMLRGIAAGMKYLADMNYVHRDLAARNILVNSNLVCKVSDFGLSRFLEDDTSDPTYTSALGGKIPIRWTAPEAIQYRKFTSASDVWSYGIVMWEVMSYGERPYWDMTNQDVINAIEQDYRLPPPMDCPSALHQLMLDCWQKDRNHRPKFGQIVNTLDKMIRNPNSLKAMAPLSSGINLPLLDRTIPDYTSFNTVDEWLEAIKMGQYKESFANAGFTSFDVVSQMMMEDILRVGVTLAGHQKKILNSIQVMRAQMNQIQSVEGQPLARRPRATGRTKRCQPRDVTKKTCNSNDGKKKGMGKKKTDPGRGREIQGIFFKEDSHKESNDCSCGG
smiles,measurement,setting,value
"N#Cc1cc(-c2ncnc(Nc3ccc(N4CCN(C5COC5)CC4)cc3)n2)ccc1OC1CCOCC1 [Compound 1, 5-(4-((4-(4-(oxetan-3-yl)piperazin-1-yl)phenyl)amino)-1,3,5-triazin-2-yl)-2-((tetrahydro-2H-pyran-4-yl)oxy)benzonitrile]",inhibition,[1]; read-out: % Inhibition 1,0%
same,inhibition,[1]; read-out: % Inhibition 2,1%
same,inhibition,[1]; read-out: % Inhibition Avg,0%
same,inhibition,[2]; read-out: % Inhibition 1,14%
same,inhibition,[2]; read-out: % Inhibition 2,17%
same,inhibition,[2]; read-out: % Inhibition Avg,16%
